Reference: patent US20250230149A1, “MGLUR5 MODULATING COMPOUNDS, COMPOSITIONS, AND METHODS OF USE” (Allyx Therapeutics, Inc., priority 2022, published 2025)
pKi: −log10 of the molar value. Converted amounts (≈) assume the structure as drawn. Like-named read-outs stand apart in the source and are kept apart here.

Columns and labels:
[1] = Approximate solubility (visual) in solvents; assay type: physicochemical; conditions: thermodynamic from solid, read-out: Approx. solubility
Experimental: The polymorph study protocol involved the use of a selection of solvents in which the solubility of Compound 1 was initially evaluated. Four typologies of experiments were then set up: temperature cycling, evaporative, long-term slurries and vapor diffusion. The number of solvents, solvent volumes and amount of material to be used in each experiment was based on solubility values and the kind of experiment.
Approximate solubility (visual) of Compound 1 was assessed in a list of solvents selected based on class diversity including solvent/water mixtures (Table 5). Compound 1 (5.0±0.2 mg) was weighted in vials and known aliquots of solvent were progressively added at 20° C. until a clear solution was visually observed; magnetic stirring was applied. The final solutions were stirred at room temperature overnight to evaluate any re-crystallization phenomena.

CYP2C9 = biological target: T1, CYP2C9 (Homo sapiens, UniProt P11712); assay: CYP450 reaction phenotyping in Supersomes, CYP2C9; assay type: in vitro ADME
T1 construct: purchased
Experimental: (§1) In Vitro CYP450 Reaction Phenotyping Study in Supersomes™ Over-Expressing Human CYP Enzymes
(§2) The CYPP450 enzymes involved in the Phase I metabolism of Compound 1 Form A were investigated in vitro. Compound 1 Form A was metabolized by CYP1A2, CYP2D6 and CYP3A4 and with T1/2 values of 64, 14, and 176 min, respectively, and CLint of 0.261, 0.984 and 0.0786 μL/min/pmol CYP, respectively. No evidence of Compound 1 metabolism by CYP2B6, CYP2C8, CYP2C9 and CYP2C19 was observed.

CYP2C19 = CYP2C19 (Homo sapiens, UniProt P33261); assay: CYP450 reaction phenotyping in Supersomes, CYP2C19; assay type: in vitro ADME
Experimental: as §1, §2

[2] = biological target: T2, pregnane X receptor (PXR) (Homo sapiens, UniProt O75469); assay: PXR receptor activation, human; assay type: in vitro ADME
T2 sequence (O75469 1-434): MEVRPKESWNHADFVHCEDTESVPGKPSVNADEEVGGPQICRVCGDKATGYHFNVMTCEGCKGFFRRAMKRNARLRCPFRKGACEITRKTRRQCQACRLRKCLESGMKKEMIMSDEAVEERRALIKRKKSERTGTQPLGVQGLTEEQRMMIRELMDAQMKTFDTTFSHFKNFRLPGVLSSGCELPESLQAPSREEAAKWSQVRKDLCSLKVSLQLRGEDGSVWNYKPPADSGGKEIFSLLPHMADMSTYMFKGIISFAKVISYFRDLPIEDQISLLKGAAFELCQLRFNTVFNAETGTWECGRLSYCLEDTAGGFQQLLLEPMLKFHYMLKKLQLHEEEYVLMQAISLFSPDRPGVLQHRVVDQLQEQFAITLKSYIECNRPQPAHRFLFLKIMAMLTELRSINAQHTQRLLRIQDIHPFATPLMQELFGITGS
Source text: The objective of this study was to determine the human and rat pregnane X receptor (PXR) and human and rat aryl hydrocarbon receptor (AhR) receptor activation potential of Compound 1 Form A. The activation of PXR is a marker for induction of CYP3A4/5 and […] and the activation of AhR is a marker for induction of CYP1A.

mGluR5 = mGluR5 (Homo sapiens, UniProt P41594); assay: [3H]-MPEPy displacement from mGluR5; assay type: binding; conditions: read-out: inhibitor constant (Ki) for [3H]-MPEPy displacement from mGluR5
C57/BI6J mice = assay: Prevention of positive allosteric modulator (PAM) induced seizures; assay type: in vivo; conditions: oral gavage 2 hours before PAM 20 mg/kg i.p.
Experimental: The objective of this study was to assess the enantiomeric selectivity of Compound 1 for the mGluR5 receptor as a function of seizure prevention. It had been previously reported that PAMs of mGluR5 are capable of inducing seizures in C57/BI6J mice.
Compound 1 (0.12, 0.24, 0.47, 0.94, 1.88, 3.75 or 7.5 mg/kg), enantiomer of Compound 1 (7.5, 15 or 30 mg/kg) or vehicle were administered by oral gavage to C57/BI6J mice of 3-11 months of age. After 2 hours, a PAM compound was administered at 20 mg/kg via intraperitoneal injection. Animals were then placed in a 10 inch diameter acrylic cage for observation and video recording for 2 h post dose and seizures were scored using the Racine seizure scoring criteria and normalized to a scale of 0-1.

double knock-in mice = assay: Tau accumulation in double knock-in mice; assay type: in vivo
Source text: (§3) Compound 1 (e.g., Form A) prevented Alzheimer's triggered aberrant synaptic signaling while preserving physiological Glu activation. Studies have been conducted to show oral Compound 1 effectively occupied brain mGluR5 sites visualized by [^18F]FPEB PET at doses 250-fold below adverse effect levels in rodent and non-human primate. […] Production of the microglial mediator, C1q, was not altered by Compound 1, but Alzheimer-gene-dependent C1q localization to synapses and synaptic engulfment were prevented. Thus, selective modulation of mGluR5 reversed neuronal gene expression changes to protect synapses from damage by microglial mediators.

neurons and glia = assay: Single nuclei transcriptomics; assay type: in vivo, mice; conditions: neurons vs glia
Source text: as §3

Sequence of mGluR5 (P41594 21-1212): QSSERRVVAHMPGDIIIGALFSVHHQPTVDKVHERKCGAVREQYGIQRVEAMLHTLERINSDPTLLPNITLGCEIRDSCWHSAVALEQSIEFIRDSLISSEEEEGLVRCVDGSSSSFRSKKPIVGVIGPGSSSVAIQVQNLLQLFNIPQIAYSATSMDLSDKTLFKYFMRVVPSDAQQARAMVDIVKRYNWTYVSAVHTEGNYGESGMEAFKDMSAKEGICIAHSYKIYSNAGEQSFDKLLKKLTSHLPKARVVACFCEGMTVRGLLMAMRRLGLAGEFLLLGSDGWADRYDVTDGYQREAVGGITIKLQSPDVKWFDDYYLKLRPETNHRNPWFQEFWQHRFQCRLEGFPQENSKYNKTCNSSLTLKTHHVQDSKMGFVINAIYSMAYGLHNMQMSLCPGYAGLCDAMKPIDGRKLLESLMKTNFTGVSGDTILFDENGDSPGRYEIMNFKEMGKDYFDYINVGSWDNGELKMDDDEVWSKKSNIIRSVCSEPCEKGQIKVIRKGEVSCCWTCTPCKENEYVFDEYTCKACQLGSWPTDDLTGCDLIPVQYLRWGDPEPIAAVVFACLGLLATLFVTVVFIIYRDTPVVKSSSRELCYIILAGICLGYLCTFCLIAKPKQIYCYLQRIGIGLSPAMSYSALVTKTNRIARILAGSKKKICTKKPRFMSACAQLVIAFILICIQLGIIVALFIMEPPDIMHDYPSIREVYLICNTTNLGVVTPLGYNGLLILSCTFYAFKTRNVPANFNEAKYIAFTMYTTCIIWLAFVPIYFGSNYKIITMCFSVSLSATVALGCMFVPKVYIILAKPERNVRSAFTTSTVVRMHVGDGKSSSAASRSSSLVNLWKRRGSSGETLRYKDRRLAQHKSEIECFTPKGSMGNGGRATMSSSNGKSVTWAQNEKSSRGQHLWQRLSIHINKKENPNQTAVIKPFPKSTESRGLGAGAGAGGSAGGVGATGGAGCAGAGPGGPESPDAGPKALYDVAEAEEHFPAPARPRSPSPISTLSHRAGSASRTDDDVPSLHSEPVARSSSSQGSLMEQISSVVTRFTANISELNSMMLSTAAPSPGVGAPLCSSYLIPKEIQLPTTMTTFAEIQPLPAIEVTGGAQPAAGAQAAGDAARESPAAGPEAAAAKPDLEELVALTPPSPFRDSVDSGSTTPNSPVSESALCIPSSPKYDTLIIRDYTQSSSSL
Sequence of CYP2C19 (P33261 whole entry): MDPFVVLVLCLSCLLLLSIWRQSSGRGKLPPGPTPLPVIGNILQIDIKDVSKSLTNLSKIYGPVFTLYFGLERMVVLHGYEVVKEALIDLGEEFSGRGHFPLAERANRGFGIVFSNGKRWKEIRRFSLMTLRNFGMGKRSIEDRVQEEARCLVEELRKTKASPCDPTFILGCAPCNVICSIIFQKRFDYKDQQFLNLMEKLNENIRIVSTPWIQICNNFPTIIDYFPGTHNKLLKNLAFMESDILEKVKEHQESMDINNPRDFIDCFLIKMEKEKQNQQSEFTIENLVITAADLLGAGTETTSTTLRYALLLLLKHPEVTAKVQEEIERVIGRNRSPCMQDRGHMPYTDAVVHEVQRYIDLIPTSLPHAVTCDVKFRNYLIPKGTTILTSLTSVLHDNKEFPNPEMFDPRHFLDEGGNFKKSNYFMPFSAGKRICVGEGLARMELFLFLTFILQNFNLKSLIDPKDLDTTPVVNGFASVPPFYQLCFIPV
T1 sequence (P11712 whole entry): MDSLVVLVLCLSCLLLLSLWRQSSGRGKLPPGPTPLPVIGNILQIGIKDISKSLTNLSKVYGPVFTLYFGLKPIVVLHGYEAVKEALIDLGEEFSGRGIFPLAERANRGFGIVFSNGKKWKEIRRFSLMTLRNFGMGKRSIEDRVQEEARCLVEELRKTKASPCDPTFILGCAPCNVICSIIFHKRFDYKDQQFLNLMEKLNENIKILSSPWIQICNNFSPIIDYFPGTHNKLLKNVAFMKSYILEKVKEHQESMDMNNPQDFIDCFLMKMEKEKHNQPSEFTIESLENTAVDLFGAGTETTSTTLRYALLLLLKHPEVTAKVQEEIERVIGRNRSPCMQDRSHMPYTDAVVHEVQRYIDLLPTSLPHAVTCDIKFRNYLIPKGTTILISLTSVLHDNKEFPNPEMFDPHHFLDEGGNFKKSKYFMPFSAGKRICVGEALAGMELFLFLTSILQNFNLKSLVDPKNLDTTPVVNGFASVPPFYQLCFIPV

O=C1N[C@H](c2cncc(C#Cc3ccccc3)c2)[C@@H](c2ccccc2Cl)O1 [Compound 1, (4R,5R)-5-(2-chlorophenyl)-4-(5-(phenylethynyl)pyridin-3-yl)oxazolidin-2-one]
solubility ([1]; aqueous with cosolvent or surfactant or cyclodextrin, 2-propanol/water 50:50, 20° C.): ~5 mg/mL (≈ 13.3 mM) | solubility ([1]; aqueous with cosolvent or surfactant or cyclodextrin, acetone/water 50:50, 20° C.): ~5 mg/mL (≈ 13.3 mM) | solubility ([1]; organic solvent or mixture, 2-butanol, 20° C.): 50 to 100 mg/mL (≈ 133 to 267 mM) | solubility ([1]; organic solvent or mixture, 2-methyltetrahydrofuran (MeTHF), 20° C.): > 100 mg/mL | solubility ([1]; organic solvent or mixture, 2-propanol/water 80:20, 20° C.): 50 to 100 mg/mL (≈ 133 to 267 mM) | solubility ([1]; organic solvent or mixture, 2-propanol/water 90:10, 20° C.): 30 to 50 mg/mL (≈ 80 to 133 mM) | solubility ([1]; organic solvent or mixture, acetone, 20° C.): > 100 mg/mL | solubility ([1]; organic solvent or mixture, acetone/water 90:10, 20° C.): > 100 mg/mL | solubility ([1]; organic solvent or mixture, acetonitrile, 20° C.): 50 to 100 mg/mL (≈ 133 to 267 mM) | solubility ([1]; organic solvent or mixture, benzonitrile, 20° C.): > 100 mg/mL | solubility ([1]; organic solvent or mixture, dichloromethane, 20° C.): > 100 mg/mL | solubility ([1]; organic solvent or mixture, ethanol, 20° C.): > 100 mg/mL | solubility ([1]; organic solvent or mixture, ethyl acetate, 20° C.): > 100 mg/mL | solubility ([1]; organic solvent or mixture, heptane, 20° C.): < 2 mg/mL | solubility ([1]; organic solvent or mixture, i-propyl acetate, 20° C.): 50 to 100 mg/mL (≈ 133 to 267 mM) | solubility ([1]; organic solvent or mixture, isopropyl alcohol (IPA), 20° C.): 25 to 30 mg/mL (≈ 66.7 to 80 mM) | solubility ([1]; organic solvent or mixture, methyl ethyl ketone (MEK), 20° C.): > 100 mg/mL | solubility ([1]; organic solvent or mixture, methyl isobutyl ketone (MIK), 20° C.): > 100 mg/mL | solubility ([1]; organic solvent or mixture, methyl tert-butyl ether (MTBE), 20° C.): 17 to 25 mg/mL (≈ 45.4 to 66.7 mM) | solubility ([1]; organic solvent or mixture, t-Butyl acetate, 20° C.): 25 to 30 mg/mL (≈ 66.7 to 80 mM) | solubility ([1]; organic solvent or mixture, tetrahydrofuran (THF), 20° C.): > 100 mg/mL | solubility ([1]; organic solvent or mixture, toluene, 20° C.): 25 to 30 mg/mL (≈ 66.7 to 80 mM) | solubility ([1]; water, 20° C.): < 2 mg/mL | metabolism by CYP2C9 (CYP2C9): No evidence | metabolism by CYP2C19 (CYP2C19): No evidence | PXR activation, % of the positive control [2]: 29.6% | calculated F2 value, PXR [2]: 5.05 UM | mean maximum fold activation of PXR [2]: 4.58 fold | pKi (mGluR5): 9.22 | seizure prevention activity (C57/BI6J mice; Compound 1 0.12-7.5 mg/kg, enantiomer 7.5-30 mg/kg): dose dependent prevention | IC50 of inhibition of PAM-induced seizures (C57/BI6J mice; Racine score): 1.09 mg/kg | Tau accumulation (double knock-in mice): reduced | normalization of expression patterns (neurons and glia): to a much greater extent in neurons than glia
